How the values were obtained:
[1] = tested on: Coa6 knockdown zebrafish embryos
Protocol: Batches of 50 fertilized embryos injected with either translation blocking or mismatch control morpholinos were treated with or without 100 nM ES at 3 hpf, before making observations at the indicated time points (n % 30 for each time point and treatment).
Zebrafish Experiments. […] Wild type AB strain and Ctr1 heterozygous zebrafish were maintained and crossed using standard methods. Embryos were staged and raised in Egg Water at 28.5° C. For drug treatments, embryos from Ctr1 heterozygous crosses were incubated in 10 nM ES diluted in Egg Water beginning at 3 hours post-fertilization (hpf). For imaging live embryos at 48 hpf, representative embryos of each sample were anesthetized in Tricaine and imaging was performed on an Olympus SZX12 stereomicroscope. […] Morpholino-based experiments were performed.

Ctr1^−/− zebrafish = assay: Cox1 levels in mitochondrial extracts of Ctr1 mutant zebrafish; assay type: in vivo; settings: grown in the presence of ES until 10 dpf
Protocol: Zebrafish Experiments. […] Morpholino-based experiments were performed.
ES Supplementation Rescues Copper Deficiency Phenotypes in Zebrafish Models. To determine whether ES can rescue phenotypes associated with copper deficiency in an intact developing vertebrate animal model, zebrafish embryos with a null mutation in the gene encoding the plasma membrane copper importer Ctr1 were utilized. Zebrafish were chosen because of the ability to quickly monitor the pigmentation defect that arises due to the copper requirement of tyrosinase, an enzyme that catalyzes the critical step in melanin biosynthesis. Wild type zebrafish embryos have a characteristic melanin pigmentation pattern visible at 48 hpf. To determine if ES can rescue copper deficiency phenotypes in zebrafish, zebrafish embryos from heterozygous Ctr1 crosses in 10 nM ES were incubated and compared to untreated embryos. […] To determine whether ES can rescue the observed CcO assembly defect, clutches of embryos were grown from heterozygous Ctr1 crosses in the presence of ES until 10 dpf and levels of Cox1 in their mitochondrial extracts were measured.

SCO2 patient fibroblasts = assay: Steady state COX2 levels in SCO2 patient fibroblasts; assay type: cell-based, human; settings: dose and time dependent
Protocol: Mammalian Cell Culture. The human control MCH46 and SCO2 patient fibroblasts as well as the rat H9c2 control and Ctr1^−/− cardiomyocytes were cultured in high glucose Dulbecco's modified Eagle's medium (DMEM) supplemented with 10% fetal bovine serum (Sigma) and 1 mM sodium pyruvate (Life Technologies). The mouse embryonic fibroblasts were cultured in DMEM 10% FBS, 1 mM sodium pyruvate, 1× minimum essential medium non-essential amino acids (MEM NEAA; Life Technologies 11140), 50 μg/mL uridine, and 1× Pen Strep Glutamine (Life Technologies 10378). All cell lines were cultured under 5% CO2 at 37° C. and were treated with indicated concentrations of ES for 3-6 days before harvesting. Whole cell protein was extracted in lysis buffer (BP-115, Boston BioProducts) supplemented with protease inhibitor cocktail (Roche Diagnostics) and the protein concentrations were determined by BCA assay (Thermo Scientific).
Immunoblotting and In-gel Activities. Sodium dodecyl sulfate polyacrylamide gel electrophoresis (SDS-PAGE) and Blue Native PAGE (BN-PAGE) were performed to separate denatured and native protein complexes, respectively. For SDS-PAGE, mitochondrial lysate ([…]) was separated on NuPAGE 4-12% Bis-Tris gels (Life Technologies, Carlsbad, CA). For BN-PAGE, yeast mitochondria were solubilized in buffer containing 1% digitonin (Life Technologies) by incubating for 15 min at 4° C. […]

yeast ccc2Δ = assay: Respiratory growth rescue of ccc2Δ yeast; assay type: cell-based, Saccharomyces cerevisiae; settings: non-fermentable media, 37° C.
Protocol: Yeast Strains and Culture Conditions. The authenticity of yeast strains was confirmed by PCR as well as by replica plating on dropout plates. Yeast cells were cultured in standard YP growth media including YPD (1% yeast extract, 2% peptone and 2% glucose), YPGal (2% galactose), YPGE (3% glycerol+1% ethanol), or synthetic media (SC glucose). For qualitative growth measurement, 10-fold serial dilutions of overnight cultures were spotted on YPD or YPGE plates and incubated at 30° C. and 37° C. for the indicated period. Growth in liquid media was measured spectrophotometrically at 600 nm.
ES Rescues Many Different Yeast Mutants with Impaired Copper Metabolism. To test the specificity of ES mediated rescue, a number of yeast mutants of genes required for maintaining cellular and mitochondrial copper homeostasis were shortlisted. Genes were prioritized based on their evolutionary conservation, presence of pathogenic mutations in humans, and/or the existence of a related mouse phenotype (Table 3, shown below). […] Most of the yeast mutants were rescued with ES supplementation, albeit to different degrees, reflecting their distinct roles in cellular and mitochondrial copper homeostasis. […]

In the case of `CN(NC(=O)CC(=O)NN(C)C(=S)c1ccccc1)C(=S)c1ccccc1` [ES, elesclomol], the pericardial edema ([1]; 100 nM ES) is reported as “prevented pericardial edema”, the “rescue of morphological phenotype score” value ([1]; 100 nM ES at 3 hpf, scored at 24, 48, 72, 96 hpf) is reported as “rescue with 100 nM ES treatment was observed as early as 48 hpf” and the “heart rate of Coa6 knockdown embryos” value ([1]; 100 nM ES, 72 and 96 hpf) is reported as “significantly increased the heart rate”. For the same compound, the “Cox1 levels in mitochondrial extracts” value (Ctr1^−/− zebrafish) was “almost completely rescued”, the “steady state levels of COX2” value (SCO2 patient fibroblasts) was “partially rescue” and the “rescue of respiratory growth” value (yeast ccc2Δ) was “rescue”.

Reference: patent US20240285555A1, “COMPOSITIONS FOR THE TREATMENT OF COPPER DEFICIENCY AND METHODS OF USE” (priority 2018, published 2024)
